ChEMBL document CHEMBL3627645, “Synthesis and activities of new indolopyrrolobenzodiazepine derivatives toward acute myeloid leukemia cells” (Bioorg Med Chem, 2015)
The source made the active and inactive calls. The rule behind the calls is not given here.

Columns and labels:
[1] = target: T1, Serine/threonine-protein kinase pim-1 (Homo sapiens, UniProt P11309); assay: Inhibition of human Pim-1 using RSRHSSYPAGT as substrate assessed as residual activity at 10 uM measured for 30 mins in presence of [gamma-33P]-ATP relative to control
Target sequence in this assay (P11309 whole entry, looked up): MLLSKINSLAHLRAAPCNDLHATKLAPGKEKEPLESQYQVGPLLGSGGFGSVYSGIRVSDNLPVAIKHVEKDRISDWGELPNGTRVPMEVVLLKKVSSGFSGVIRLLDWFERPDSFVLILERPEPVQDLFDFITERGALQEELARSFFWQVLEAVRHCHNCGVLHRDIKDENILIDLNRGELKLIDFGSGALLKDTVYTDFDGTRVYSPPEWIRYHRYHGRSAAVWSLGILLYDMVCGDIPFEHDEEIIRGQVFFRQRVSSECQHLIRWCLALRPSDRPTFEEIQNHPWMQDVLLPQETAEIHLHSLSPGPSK

[2] = target: T1, Serine/threonine-protein kinase pim-1; assay: Inhibition of human Pim-1 using RSRHSSYPAGT as substrate assessed as residual activity at 1 uM measured for 30 mins in presence of [gamma-33P]-ATP relative to control
Target sequence in this assay (P11309 whole entry, looked up): as above

[3] = target: T1, Serine/threonine-protein kinase pim-1; assay: Inhibition of human Pim-1 using RSRHSSYPAGT as substrate measured for 30 mins in presence of [gamma-33P]-ATP
Target sequence in this assay (P11309 whole entry): as the sequence (P11309 whole entry, looked up) above

[4] = target: T2, Serine/threonine-protein kinase pim-3 (Homo sapiens, UniProt Q86V86); assay: Inhibition of human Pim-3 using RSRHSSYPAGT as substrate assessed as residual activity at 10 uM measured for 30 mins in presence of [gamma-33P]-ATP relative to control
[5] = target: T2, Serine/threonine-protein kinase pim-3; assay: Inhibition of human Pim-3 using RSRHSSYPAGT as substrate assessed as residual activity at 1 uM measured for 30 mins in presence of [gamma-33P]-ATP relative to control
[6] = target: T2, Serine/threonine-protein kinase pim-3; assay: Inhibition of human Pim-3 using RSRHSSYPAGT as substrate measured for 30 mins in presence of [gamma-33P]-ATP
IPC81 [7] = assay: Induction of apoptosis in rat IPC81 cells assessed as chromatin condensation and fragmentation at 10 to 100 uM after 48 to 72 hrs by Hoechst 33342 staining-based visual and UV microscopic analysis; assay type: functional, cell-based
IPC81 [8] = assay: Induction of apoptosis in rat IPC81 cells overexpressing Bcl-2 assessed as chromatin condensation and fragmentation at 10 to 100 uM after 48 hrs by Hoechst 33342 staining-based visual and UV microscopic analysis; assay type: functional, cell-based
NRK = assay: Induction of apoptosis in NRK cells assessed as chromatin condensation and fragmentation at 10 to 100 uM after 48 hrs by Hoechst 33342 staining-based UV-vis microscopic analysis; assay type: cell-based; details: rat
IPC81 [9] = assay: Induction of apoptosis in rat IPC81 cells assessed as chromatin condensation and fragmentation at 100 uM after 72 hrs by Hoechst 33342 staining-based visual and UV microscopic analysis; assay type: functional, cell-based
[10] = target: T1, Serine/threonine-protein kinase pim-1; assay: Inhibition of Pim-1 (unknown origin)
Target sequence in this assay (P11309 whole entry): as the sequence (P11309 whole entry, looked up) above

[11] = target: T2, Serine/threonine-protein kinase pim-3; assay: Inhibition of Pim-3 (unknown origin)

Activity [1] | Activity [2] | IC50 [3] | Activity [4] | Activity [5] | IC50 [6] | IC50 [10] | IC50 [11] | SMILES | Activity (IPC81 [7]) | Activity (IPC81 [8]) | Activity (NRK) | Activity (IPC81 [9])
9% | 44% | 1100 nM | 10.8% | 30% | 700 nM | – | – | O=Cc1cn2c3c1ccc1c4ccccc4n(c13)CC(OCCO)C2 (centres undefined) | Active | inactive | Toxic | Active
22.4% | 58.2% | – | 26% | 51% | – | – | – | CN1CCN(CCCOC2Cn3cc(C=O)c4ccc5c6ccccc6n(c5c43)C2)CC1 (centres undefined) | – | – | – | –
– | – | – | – | – | – | 42 nM | 50 nM | O=Cc1cn2c3c1ccc1c4ccccc4n(c13)CCC2 | – | – | – | –
– | – | – | – | – | – | 9 nM | 26 nM | O=Cc1cn2c3c1ccc1c4ccccc4n(c13)CCCCC2 | – | – | – | –
24.1% | 58% | – | 18.3% | 54% | – | – | – | O=Cc1cn2c3c1ccc1c4ccccc4n(c13)CC(OCCCN1CCCC1)C2 (centres undefined) | – | – | – | –
35% | 78% | – | 28% | 59% | – | – | – | CCN(CC)CCOC1Cn2cc(C=O)c3ccc4c5ccccc5n(c4c32)C1 (centres undefined) | – | – | – | –
34% | 57% | – | 35% | 65.8% | – | – | – | O=Cc1cn2c3c1ccc1c4ccccc4n(c13)CC(OCCN1CCOCC1)C2 (centres undefined) | – | – | – | –
102% | 78% | – | 80% | 65% | – | – | – | Cc1ccc(S(=O)(=O)OCCOC2Cn3cc(C=O)c4ccc5c6ccccc6n(c5c43)C2)cc1 (centres undefined) | – | – | – | –
35% | 94% | – | 28% | 60% | – | – | – | CN1CCN(CCOC2Cn3cc(C=O)c4ccc5c6ccccc6n(c5c43)C2)CC1 (centres undefined) | – | – | – | –
31% | 66% | – | 20% | 45% | – | – | – | O=Cc1cn2c3c1ccc1c4ccccc4n(c13)CC(OCCCN1CCCCC1)C2 (centres undefined) | Active | Active | Non-toxic | Active
21% | 54.9% | – | 16% | 49.6% | – | – | – | O=Cc1cn2c3c1ccc1c4ccccc4n(c13)CC(OCCCO)C2 (centres undefined) | – | – | – | –
29% | 71.6% | – | 24% | 60.8% | – | – | – | CCN(CC)CCCOC1Cn2cc(C=O)c3ccc4c5ccccc5n(c4c32)C1 (centres undefined) | – | – | – | –
17.8% | 84% | – | 16.4% | 48% | – | – | – | O=Cc1cn2c3c1ccc1c4ccccc4n(c13)CC(OCCN1CCCC1)C2 (centres undefined) | – | – | – | –
19% | 54% | 740 nM | 11% | 40% | 340 nM | – | – | O=Cc1cn2c3c1ccc1c4ccccc4n(c13)CC(OCCCBr)C2 (centres undefined) | inactive | inactive | Non-toxic | –
94% | 81% | – | 79% | 70.8% | – | – | – | Cc1ccc(S(=O)(=O)OCCCOC2Cn3cc(C=O)c4ccc5c6ccccc6n(c5c43)C2)cc1 (centres undefined) | – | – | – | –
5% | 38% | 1400 nM | 3.5% | 13.3% | 380 nM | – | – | O=Cc1cn2c3c1ccc1c4ccccc4n(c13)CC(O)C2 (centres undefined) | – | – | – | –
28% | 75% | – | 24% | 70% | – | – | – | O=Cc1cn2c3c1ccc1c4ccccc4n(c13)CC(OCCCN1CCOCC1)C2 (centres undefined) | – | – | – | –
1.9% | 9.5% | 390 nM | 5% | 10.3% | 190 nM | – | – | N#CCOC1Cn2cc(C=O)c3ccc4c5ccccc5n(c4c32)C1 (centres undefined) | inactive | inactive | Toxic | –
6.6% | 24% | 1560 nM | 8.1% | 25% | 600 nM | – | – | CS(=O)(=O)OC1Cn2cc(C=O)c3ccc4c5ccccc5n(c4c32)C1 (centres undefined) | – | – | – | –
32% | 52% | – | 34% | 55% | – | – | – | Cc1ccc(S(=O)(=O)NC2Cn3cc(C=O)c4ccc5c6ccccc6n(c5c43)C2)cc1 (centres undefined) | – | – | – | –
30% | 82% | – | 22.2% | 54% | – | – | – | O=Cc1cn2c3c1ccc1c4ccccc4n(c13)CC(OCCN1CCCCC1)C2 (centres undefined) | – | – | – | –
